pEC50: −log10 of the molar value.
Each compound was assayed against T1, soluble guanylate cyclase (human GUCYA3/GUCYB3) overexpressed in CHO cells (Homo sapiens, UniProt Q02108+Q02153) (assay: CHO cellular assay (cGMP production, HTRF)). Details: CHO K1 clone 8E10 overexpressing human sGC, Cisbio HTRF, 1 h room temperature, 1 mM IBMX, 20 uM ODQ, minimum quantification limit 0.5 nM.
T1 construct: expressed in transfected cells
T1 sequence (Q02108 1-690 partner): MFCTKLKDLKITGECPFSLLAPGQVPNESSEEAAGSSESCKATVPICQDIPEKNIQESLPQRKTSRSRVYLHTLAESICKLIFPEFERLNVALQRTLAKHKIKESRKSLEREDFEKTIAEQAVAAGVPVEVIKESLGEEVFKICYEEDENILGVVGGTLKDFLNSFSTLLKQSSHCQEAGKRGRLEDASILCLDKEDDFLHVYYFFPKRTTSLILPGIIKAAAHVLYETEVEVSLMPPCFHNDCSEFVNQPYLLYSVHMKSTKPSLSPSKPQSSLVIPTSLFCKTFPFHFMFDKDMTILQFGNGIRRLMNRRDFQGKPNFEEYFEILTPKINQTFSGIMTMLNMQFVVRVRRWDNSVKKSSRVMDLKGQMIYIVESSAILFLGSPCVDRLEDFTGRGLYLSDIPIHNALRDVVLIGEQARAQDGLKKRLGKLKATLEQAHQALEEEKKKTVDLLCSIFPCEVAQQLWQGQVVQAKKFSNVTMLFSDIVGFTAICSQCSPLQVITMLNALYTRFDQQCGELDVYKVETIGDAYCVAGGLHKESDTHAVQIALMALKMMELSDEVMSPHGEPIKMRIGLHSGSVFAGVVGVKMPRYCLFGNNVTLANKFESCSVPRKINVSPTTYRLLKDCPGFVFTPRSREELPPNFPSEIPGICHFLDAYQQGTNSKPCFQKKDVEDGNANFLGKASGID
T1 sequence (Q02153 1-619): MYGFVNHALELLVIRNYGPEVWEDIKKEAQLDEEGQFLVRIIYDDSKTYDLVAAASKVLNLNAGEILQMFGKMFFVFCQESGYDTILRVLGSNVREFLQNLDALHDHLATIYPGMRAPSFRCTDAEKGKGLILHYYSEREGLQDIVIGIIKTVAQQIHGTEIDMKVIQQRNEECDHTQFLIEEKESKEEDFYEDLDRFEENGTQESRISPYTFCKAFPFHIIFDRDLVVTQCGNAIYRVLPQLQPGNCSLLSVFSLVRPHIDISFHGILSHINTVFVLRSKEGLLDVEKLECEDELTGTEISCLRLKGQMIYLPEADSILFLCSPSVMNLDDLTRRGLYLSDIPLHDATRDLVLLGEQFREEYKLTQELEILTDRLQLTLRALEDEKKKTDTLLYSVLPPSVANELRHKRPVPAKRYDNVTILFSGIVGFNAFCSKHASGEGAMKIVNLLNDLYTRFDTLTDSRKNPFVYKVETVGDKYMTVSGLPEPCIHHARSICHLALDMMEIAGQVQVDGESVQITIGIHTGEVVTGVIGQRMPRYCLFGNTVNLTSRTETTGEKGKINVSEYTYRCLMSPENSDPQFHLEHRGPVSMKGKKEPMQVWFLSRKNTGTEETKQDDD
Type: cell-based
Excerpt: Chinese hamster ovary (CHO) cells overexpressing soluble guanylate cyclase were generated to test the effect of sGC activators in a cellular context. Human cDNAs for GUCYA3 (RefSeq: NM_000856.3) and GUCYB3 (RefSeq: NM_000857.1) were amplified by PCR from a HUVEC (Human Umbilical Vein Endothelial Cells) cDNA library and cloned into mammalian expression vectors. CHO K1 cells (ATCC CCL-61) were transfected using Lipofectamine 2000 following manufacturer's instructions and stably expressing clones were identified by antibiotic selection. CHO GUCY clone 8E10 was used for subsequent experiments.
Cells were seeded at a density of 3000 cells/well in white 384-well proxyplates (Perkin Elmer) and incubated overnight, then the medium was removed and cells were washed with assay buffer (HBSS, 0.1% BSA, 1 mM IBMX, 20 uM ODQ). sGC activators were serially diluted in DMSO, then diluted in assay buffer prior to adding to cells (10 ul/well, final DMSO concentration 0.5%). Cells were incubated with compounds for 1 h room temperature, then assayed for cGMP production using Cisbio cGMP HTRF kit (62GM2PEC) according to manufacturer's instructions.
The EC50s are calculated based on the amount of cGMP interpolated from the standard curve, using a 4-parameter sigmoidal dose-response.

Row | SMILES | pEC50
1 | Cc1cc(C2CCN(C(=O)C3CCOC3)CC2)ccc1OCc1ccsc1-c1cccc(-n2ncc(C(=O)O)c2C(F)(F)F)n1 (racemic) [Example 12-3, (±)-1-(6-(3-((2-Methyl-4-(1-(tetrahydrofuran-3-carbonyl)piperidin-4-yl)phenoxy)methyl)thiophen-2-yl)pyridin-2-yl)-5-(trifluoromethyl)-1H-pyrazole-4-carboxylic acid] | 8.16
2 | Cc1cc(C2CCN(C(=O)C3COC(C)(C)O3)CC2)ccc1OCc1ccsc1-c1cccc(-n2ncc(C(=O)O)c2C(F)(F)F)n1 (racemic) [Example 12-6, (±)-1-(6-(3-((4-(1-(2,2-Dimethyl-1,3-dioxolane-4-carbonyl)piperidin-4-yl)-2-methylphenoxy)methyl)thiophen-2-yl)pyridin-2-yl)-5-(trifluoromethyl)-1H-pyrazole-4-carboxylic acid] | 7.32
3 | Cc1cc(COc2ccc(C3CCN(C(=O)C4CC4)CC3O)cc2)c(-c2cccc(-n3ncc(C(=O)O)c3C(F)(F)F)n2)s1 (racemic) [Example 35-11, (±)-trans-1-(6-(3-((4-(1-(Cyclopropanecarbonyl)-3-hydroxypiperidin-4-yl)phenoxy)methyl)-5-methylthiophen-2-yl)pyridin-2-yl)-5-(trifluoromethyl)-1H-pyrazole-4-carboxylic acid] | 6.80
4 | Cc1cc(C2CCN(C(=O)C3CCNC3)CC2)ccc1OCc1ccsc1-c1cccc(-n2ncc(C(=O)O)c2C(F)(F)F)n1 (racemic) [Example 42, (±)-1-(6-(3-((2-Methyl-4-(1-(pyrrolidine-3-carbonyl)piperidin-4-yl)phenoxy)methyl)thiophen-2-yl)pyridin-2-yl)-5-(trifluoromethyl)-1H-pyrazole-4-carboxylic acid] | 6.21
5 | CCc1cc(OCc2cc(C)sc2-c2cccc(-n3ncc(C(=O)O)c3C(F)(F)F)n2)ccc1C1CCN(C(=O)C(O)CO)CC1 (racemic) [Example 44, (±)-1-(6-(3-((4-(1-(2,3-Ddihydroxypropanoyl)piperidin-4-yl)-3-ethylphenoxy)methyl)-5-methylthiophen-2-yl)pyridin-2-yl)-5-(trifluoromethyl)-1H-pyrazole-4-carboxylic acid] | 6.89
6 | Cc1cc(COc2ccc([C@@H]3CCN(C(=O)C4CC4)C[C@H]3O)cc2)c(-c2cccc(-n3ncc(C(=O)O)c3C(F)(F)F)n2)s1 (single isomer, unassigned) [Example 35-6, (+)-trans-1-(6-(3-((4-((3,4)-1-(cyclopropanecarbonyl)-3-hydroxypiperidin-4-yl)phenoxy)methyl)-5-methylthiophen-2-yl)pyridin-2-yl)-5-(trifluoromethyl)-1H-pyrazole-4-carboxylic acid] | 7.04
7 | CCC(=O)N1CCC(c2ccc(OCc3ccsc3-c3cccc(-n4ncc(C(=O)O)c4C(F)(F)F)n3)cc2)CC1 [Example 1, 1-(6-(3-((4-(1-Propionylpiperidin-4-yl)phenoxy)methyl)thiophen-2-yl)pyridin-2-yl)-5-(trifluoromethyl)-1H-pyrazole-4-carboxylic acid] | 7.62
8 | CCC(=O)N1CCC(c2ccc(OCc3c(C(F)(F)F)csc3-c3cccc(-n4ncc(C(=O)O)c4C(F)(F)F)n3)cc2)CC1 [Example 2-1, 1-(6-(3-((4-(1-Propionylpiperidin-4-yl)phenoxy)methyl)-4-(trifluoromethyl)thiophen-2-yl)pyridin-2-yl)-5-(trifluoromethyl)-1H-pyrazole-4-carboxylic acid] | 8.55
9 | COC(=O)N1CCC(c2ccc(OCc3ccsc3-c3cccc(-n4ncc(C(=O)O)c4C(F)(F)F)n3)cc2)CC1 [Example 2-2, 1-(6-(3-((4-(1-(Methoxycarbonyl)piperidin-4-yl)phenoxy)methyl)thiophen-2-yl)pyridin-2-yl)-5-(trifluoromethyl)-1H-pyrazole-4-carboxylic acid] | 7.49
10 | O=C(O)c1cnn(-c2cccc(-c3sccc3COc3ccc(C4CCN(C(=O)C5CC5)CC4)cc3)n2)c1C(F)(F)F [Example 2-3, 1-(6-(3-((4-(1-(Cyclopropanecarbonyl)piperidin-4-yl)phenoxy)methyl)thiophen-2-yl)pyridin-2-yl)-5-(trifluoromethyl)-1H-pyrazole-4-carboxylic acid] | 8.55
11 | CCC(=O)N1CCC(c2ccc(OCc3c(C(F)(F)F)csc3-c3cccc(-n4ncc(C(=O)O)c4C(F)(F)F)n3)c(C)c2)CC1 [Example 2-4, 1-(6-(3-((2-Methyl-4-(1-propionylpiperidin-4-yl)phenoxy)methyl)-4-(trifluoromethyl)thiophen-2-yl)pyridin-2-yl)-5-(trifluoromethyl)-1H-pyrazole-4-carboxylic acid] | ≥ 9.30
12 | CCC(=O)N1CCC(c2ccc(OCc3ccsc3-c3cccc(-n4ncc(C(=O)O)c4C(F)(F)F)n3)c(C)c2)CC1 [Example 2-5, 1-(6-(3-((2-Methyl-4-(1-propionylpiperidin-4-yl)phenoxy)methyl)thiophen-2-yl)pyridin-2-yl)-5-(trifluoromethyl)-1H-pyrazole-4-carboxylic acid] | 8.26
13 | COC(=O)N1CCC(c2ccc(OCc3cc(C)sc3-c3cccc(-n4ncc(C(=O)O)c4C(F)(F)F)n3)c(C)c2)CC1 [Example 3, 1-(6-(3-((4-(1-(Methoxycarbonyl)piperidin-4-yl)-2-methylphenoxy)methyl)-5-methylthiophen-2-yl)pyridin-2-yl)-5-(trifluoromethyl)-1H-pyrazole-4-carboxylic acid] | 8.85
14 | CCC(=O)N1CCC(c2cc(C)c(OCc3ccsc3-c3cccc(-n4ncc(C(=O)O)c4C(F)(F)F)n3)c(C)c2)CC1 [Example 4-1] | 8.70
15 | CCC(=O)N1CCC(c2ccc(OCc3cc(C)sc3-c3cccc(-n4ncc(C(=O)O)c4C(F)(F)F)n3)cc2)CC1 [Example 4-2, 1-(6-(5-Methyl-3-((4-(1-propionylpiperidin-4-yl)phenoxy)methyl)thiophen-2-yl)pyridin-2-yl)-5-(trifluoromethyl)-1H-pyrazole-4-carboxylic acid] | 8.52
16 | CCc1cc(COc2ccc(C3CCN(C(=O)OC)CC3)cc2C)c(-c2cccc(-n3ncc(C(=O)O)c3C(F)(F)F)n2)s1 [Example 4-3, 1-(6-(5-Ethyl-3-((4-(1-(methoxycarbonyl)piperidin-4-yl)-2-methylphenoxy)methyl)thiophen-2-yl)pyridin-2-yl)-5-(trifluoromethyl)-1H-pyrazole-4-carboxylic acid] | 8.26
17 | Cc1cc(C2CCN(C(=O)C3CC3)CC2)ccc1OCc1c(C)csc1-c1cccc(-n2ncc(C(=O)O)c2C(F)(F)F)n1 [Example 4-4, 1-(6-(3-((4-(1-(Cyclopropanecarbonyl)piperidin-4-yl)-2-methylphenoxy)methyl)-4-methylthiophen-2-yl)pyridin-2-yl)-5-(trifluoromethyl)-1H-pyrazole-4-carboxylic acid] | ≥ 9.30
18 | Cc1cc(COc2ccc(C3CCN(C(=O)C4CC4)CC3)cc2C)c(-c2cccc(-n3ncc(C(=O)O)c3C(F)(F)F)n2)s1 [Example 5, 1-(6-(3-((4-(1-(Cyclopropanecarbonyl)piperidin-4-yl)-2-methylphenoxy)methyl)-5-methylthiophen-2-yl)pyridin-2-yl)-5-(trifluoromethyl)-1H-pyrazole-4-carboxylic acid] | ≥ 9.30

Reference: US9765067B2, “Thiophen-2-yl-pyridin-2-yl-1H-pyrazole-4-carboxylic acid derivatives and the use thereof as soluble guanylate cyclase activators” (Novartis AG, priority 2014, dated 2017)
